These results are taken from patent publication US20250170266A1 (ZYMEWORKS BC INC., priority 2022, published 2025).

Like-named read-outs stand apart in the source and are kept apart here.

Type in all cases: cell-based
For experiment [1], the system named is Human peripheral blood mononuclear cells (PBMCs). Put plainly: Human PBMC Assay, cytokine release (HTRF). The settings on record: PBMC, 24 hours. The gist of the method: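 Cryopreserved human PBMCs, rested overnight with 10 ng/ml hIL3, then 300,000 cells/well treated 24 h at 37° C with compound (4-fold, 11-point titration from 15 μM) in RPMI+10% FBS. Supernatant hIL6, hTNFα and hIFNα measured by HTRF; growth medium as negative control.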

Experiment [2] deals with T1, mTLR7 (Mus musculus, UniProt P58681).
T1 construct: host or cells: HEK-Blue mTLR7 reporter cells (HEK293-derived, own knowledge)
T1 sequence (P58681 27-1050): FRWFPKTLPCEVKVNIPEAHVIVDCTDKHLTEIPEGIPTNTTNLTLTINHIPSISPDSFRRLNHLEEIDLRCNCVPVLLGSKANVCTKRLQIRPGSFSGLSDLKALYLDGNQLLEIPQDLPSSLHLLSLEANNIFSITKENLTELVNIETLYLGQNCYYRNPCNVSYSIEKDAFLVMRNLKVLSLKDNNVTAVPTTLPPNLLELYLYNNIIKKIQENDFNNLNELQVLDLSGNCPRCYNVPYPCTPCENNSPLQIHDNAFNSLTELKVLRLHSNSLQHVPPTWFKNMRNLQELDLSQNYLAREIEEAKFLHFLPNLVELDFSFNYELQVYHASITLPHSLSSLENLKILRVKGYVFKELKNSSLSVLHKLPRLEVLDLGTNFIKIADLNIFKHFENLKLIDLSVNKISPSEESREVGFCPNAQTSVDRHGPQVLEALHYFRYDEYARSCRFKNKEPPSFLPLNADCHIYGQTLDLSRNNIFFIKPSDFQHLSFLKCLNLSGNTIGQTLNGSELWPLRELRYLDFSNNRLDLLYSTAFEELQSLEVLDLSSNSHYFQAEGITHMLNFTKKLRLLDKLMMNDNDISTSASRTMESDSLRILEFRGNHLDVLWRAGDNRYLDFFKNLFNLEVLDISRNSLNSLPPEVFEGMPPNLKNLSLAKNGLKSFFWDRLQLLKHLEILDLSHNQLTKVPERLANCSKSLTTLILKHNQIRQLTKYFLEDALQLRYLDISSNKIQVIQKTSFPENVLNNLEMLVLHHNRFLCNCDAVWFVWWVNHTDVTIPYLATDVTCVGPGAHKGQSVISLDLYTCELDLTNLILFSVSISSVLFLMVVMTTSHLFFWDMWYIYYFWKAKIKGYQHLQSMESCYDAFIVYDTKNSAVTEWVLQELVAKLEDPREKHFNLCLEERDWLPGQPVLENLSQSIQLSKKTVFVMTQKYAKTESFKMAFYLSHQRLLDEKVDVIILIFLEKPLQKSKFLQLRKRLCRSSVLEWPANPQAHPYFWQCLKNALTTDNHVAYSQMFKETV
Nature of the experiment: Reporter Gene Assay (RGA), HEK-Blue mTLR7 reporter cells, SEAP readout. The settings on record: overnight incubation, SEAP absorbance 620 nm. The gist of the method: (§1)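 HEK-Blue reporter cells expressing human or mouse TLR7 (1.5×10^4 cells) were treated with an 11-point, 4-fold compound titration from 15 pM in HEK-Blue Detection medium. Incubation was overnight at 37° C with 5% CO2. Secreted embryonic alkaline phosphatase was read as absorbance at 620 nm.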

Experiment [3] concerns the target T2, hTLR7 (Homo sapiens, UniProt Q9NYK1).
T2 construct: host or cells: HEK-Blue hTLR7 reporter cells (HEK293-derived, own knowledge)
T2 sequence (Q9NYK1 27-1049): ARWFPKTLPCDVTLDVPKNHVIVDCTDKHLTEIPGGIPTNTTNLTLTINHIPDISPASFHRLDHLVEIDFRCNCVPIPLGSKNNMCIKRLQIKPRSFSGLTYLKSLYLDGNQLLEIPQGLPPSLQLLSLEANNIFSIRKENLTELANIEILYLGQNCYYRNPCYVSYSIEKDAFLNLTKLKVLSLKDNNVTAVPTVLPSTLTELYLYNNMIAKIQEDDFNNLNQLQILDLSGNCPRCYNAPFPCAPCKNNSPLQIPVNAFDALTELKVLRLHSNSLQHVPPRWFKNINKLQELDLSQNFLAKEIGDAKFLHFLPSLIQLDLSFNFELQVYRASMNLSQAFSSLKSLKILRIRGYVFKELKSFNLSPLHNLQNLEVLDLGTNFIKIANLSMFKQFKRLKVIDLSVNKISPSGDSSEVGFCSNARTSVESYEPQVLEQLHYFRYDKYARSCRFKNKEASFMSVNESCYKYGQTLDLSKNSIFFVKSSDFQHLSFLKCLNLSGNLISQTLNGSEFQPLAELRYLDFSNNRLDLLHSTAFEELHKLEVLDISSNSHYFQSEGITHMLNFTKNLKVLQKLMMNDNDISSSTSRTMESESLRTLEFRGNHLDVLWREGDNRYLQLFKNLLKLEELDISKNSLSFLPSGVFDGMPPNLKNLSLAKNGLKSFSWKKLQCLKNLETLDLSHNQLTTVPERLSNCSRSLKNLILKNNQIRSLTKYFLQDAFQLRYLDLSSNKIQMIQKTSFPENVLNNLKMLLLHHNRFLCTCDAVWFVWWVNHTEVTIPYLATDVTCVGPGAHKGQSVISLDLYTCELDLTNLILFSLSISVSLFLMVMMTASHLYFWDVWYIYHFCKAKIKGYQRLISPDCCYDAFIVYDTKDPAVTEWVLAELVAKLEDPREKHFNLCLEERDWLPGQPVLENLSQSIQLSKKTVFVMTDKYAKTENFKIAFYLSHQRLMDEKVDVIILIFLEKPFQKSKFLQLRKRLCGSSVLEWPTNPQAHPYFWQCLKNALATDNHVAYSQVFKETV
Put plainly: Reporter Gene Assay (RGA), HEK-Blue hTLR7 reporter cells, SEAP readout. The settings on record: overnight incubation, SEAP absorbance 620 nm. In short, it runs like this:
as §1

Experiment [4] deals with Mouse splenocytes. Nature of the experiment: Mouse Splenocyte Assay, cytokine release (HTRF). As to conditions: 24 hours, mIL6 in supernatant; for EC50: Splenocyte, read-out: Splenocyte IL6 EC50. The gist of the method: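 Splenocytes from female balb/c nude mice, thawed, 100,000 per well in RPMI + 10% FBS. Exposed for 24 h at 37 °C to a 4-fold 11-point compound titration from 15 μM; supernatant mIL6 and mTNFα measured by HTRF.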

The mark [5] stands for this setting: hIFNα in supernatant, EC50 values approximated and divided into groups, read-out: PBMC IFNa EC50.
[6] abbreviates: hIL6 in supernatant, read-out: PBMC IL6 EC50.

For `CCOc1nc(N)c2nc(O)n(Cc3ccc(CNCc4ccc(CNCc5ccccc5)cc4)cc3OC)c2n1` [Compound 147, 6-amino-9-(4-(((4-((benzylamino)methyl)benzyl)amino)methyl)-2-methoxy-benzyl)-2-ethoxy-9H-purin-8-ol], the EC50 (as a rule, the midpoint of the concentration-response curve) in experiment [1] (setting [5]) was < 0.1 nM; in experiment [1] (setting [6]), 38.8 nM; in experiment [2], 16.9 nM; in experiment [3], 0.9 nM; in experiment [4] it was 13.2 nM.

Consider `CCOc1nc(N)c2nc(O)n(Cc3ccc(CN4CCNCC4)cc3)c2n1` [Compound 150, 6-amino-2-ethoxy-9-(4-(piperazin-1-ylmethyl)benzyl)-9H-purin-8-ol], for which the EC50 in experiment [1] (setting [5]) was 0.1 to 1 nM; in experiment [1] (setting [6]), 322 nM; in experiment [2], 83.8 nM; in experiment [3], 6.9 nM; in experiment [4], 2130 nM.

On to `CCOc1nc(N)c2nc(O)n(Cc3ccc(CNCc4ccc(CN(CC(=O)O)CC(=O)O)cc4)cc3OC)c2n1` [Compound 151, 2,2′-((4-(((4-((6-amino-2-ethoxy-8-hydroxy-9H-purin-9-yl)methyl)-3-methoxy-benzyl)amino)methyl)benzyl)azanediyl)diacetic Acid], for which the EC50 in experiment [1] (setting [5]) is > 10 nM; in experiment [1] (setting [6]), 59.2 nM; in experiment [2] it was 125 nM; in experiment [3], 12.1 nM; in experiment [4], 68.8 nM.

Consider `CCOc1nc(N)c2nc(O)n(Cc3ccc(CN4CCNCC4)cc3F)c2n1` [Compound 152, 6-amino-2-ethoxy-9-(2-fluoro-4-(piperazin-1-ylmethyl)benzyl)-9H-purin-8-ol], for which the EC50 in experiment [1] (setting [5]) is 0.1 to 1 nM; in experiment [1] (setting [6]) it was 17 nM; in experiment [2], 31.7 nM; in experiment [3], 1.3 nM. The “Splenocyte IL6 EC50 (nM)” value in experiment [4] was “inactive”.

Turning to `CCOc1nc(N)c2nc(O)n(Cc3ccc(CN4CCC(N)CC4)cc3F)c2n1` [Compound 153, 6-amino-9-(4-((4-aminopiperidin-1-yl)methyl)-2-fluorobenzyl)-2-ethoxy-9H-purin-8-ol], the EC50 is > 10 nM in experiment [1] (setting [5]), 39 nM in experiment [1] (setting [6]), 263 nM in experiment [2] and 6.1 nM in experiment [3]. The “Splenocyte IL6 EC50 (nM)” value in experiment [4] is “inactive”.

As to `CCCCOc1nc(N)c2nc(O)n(Cc3ccc(CN4CCNCC4)cc3OC)c2n1` [Compound 154, 6-amino-2-butoxy-9-(2-methoxy-4-(piperazin-1-ylmethyl)benzyl)-9H-purin-8-ol], the EC50 in experiment [1] (setting [5]) was > 10 nM; in experiment [1] (setting [6]), 1970 nM; in experiment [2], 2.9 nM; in experiment [3], 0.2 nM; in experiment [4] it was 217 nM.

`CCCCOc1nc(N)c2nc(O)n(Cc3ccc(CN4CCC(N)CC4)cc3OC)c2n1` [Compound 155, 6-amino-9-(4-((4-aminopiperidin-1-yl)methyl)-2-methoxybenzyl)-2-butoxy-9H-purin-8-ol]: the EC50 in experiment [1] (setting [5]) is > 10 nM; in experiment [1] (setting [6]), 878 nM; in experiment [2], 9.2 nM; in experiment [3], 0.2 nM; in experiment [4], 148 nM.

In the case of `CCCCOc1nc(N)c2nc(O)n(Cc3ccc(CN4CCC(CN)CC4)cc3OC)c2n1` [Compound 156, 6-amino-9-(4-((4-(aminomethyl)piperidin-1-yl)methyl)-2-methoxybenzyl)-2-butoxy-9H-purin-8-ol], the concentration for a half-maximal effect (EC50) was > 10 nM in experiment [1] (setting [5]), 0.3 nM in experiment [2], 0.3 nM in experiment [3] and 2.5 nM in experiment [4].

For `CCCCOc1nc(N)c2nc(O)n(Cc3ccc(CN4CCC5(CCNCC5)CC4)cc3OC)c2n1` [Compound 157, 9-(4-((3,9-diazaspiro[5.5]undecan-3-yl)methyl)-2-methoxybenzyl)-6-amino-2-butoxy-9H-purin-8-ol], the EC50 was > 10 nM in experiment [1] (setting [5]); 473 nM in experiment [1] (setting [6]); 3.7 nM in experiment [2]; 0.9 nM in experiment [3]; 9.4 nM in experiment [4].

Turning to `CCCCOc1nc(N)c2nc(O)n(Cc3ccc(CN4CCC(CCN)CC4)cc3OC)c2n1` [Compound 158, 6-amino-9-(4-((4-(2-aminoethyl)piperidin-1-yl)methyl)-2-methoxybenzyl)-2-butoxy-9H-purin-8-ol], the EC50 was 1 to 10 nM in experiment [1] (setting [5]), 0.1 nM in experiment [2], 0.1 nM in experiment [3] and 3.2 nM in experiment [4].

On to `CCCCOc1nc(N)c2nc(O)n(Cc3ccc(CNCC(C)(C)O)cc3OC)c2n1` [Compound 159, 6-amino-2-butoxy-9-(4-(((2-hydroxy-2-methylpropyl)amino)methyl)-2-methoxybenzyl)-9H-purin-8-ol], for which the EC50 in experiment [1] (setting [5]) was < 0.1 nM; in experiment [2] it was 2.9 nM; in experiment [3], 1.6 nM; in experiment [4], 2 nM.

On to `CCCCOc1nc(N)c2nc(O)n(Cc3ccc(CNCCCCN)cc3OC)c2n1` [Compound 160, 6-amino-9-(4-(((4-aminobutyl)amino)methyl)-2-methoxybenzyl)-2-butoxy-9H-purin-8-ol], for which the concentration for a half-maximal effect (EC50) was < 0.1 nM in experiment [1] (setting [5]); 1080 nM in experiment [1] (setting [6]); 10 nM in experiment [2]; 7.2 nM in experiment [3]; 6.6 nM in experiment [4].

Regarding `CCCCOc1nc(N)c2nc(O)n(Cc3ccc(CN)cc3OC)c2n1` [Compound 162, 6-amino-9-(4-(aminomethyl)-2-methoxybenzyl)-2-butoxy-9H-purin-8-ol], the EC50 in experiment [1] (setting [5]) is 1 to 10 nM; in experiment [2], 2.3 nM; in experiment [3], 1.7 nM; in experiment [4], 1.3 nM.

In the case of `CCCCOc1nc(N)c2nc(O)n(Cc3ccc(CNC)cc3OC)c2n1` [Compound 163, 6-amino-2-butoxy-9-(2-methoxy-4-((methylamino)methyl)benzyl)-9H-purin-8-ol], the EC50 in experiment [1] (setting [5]) is < 0.1 nM; in experiment [2], 3.3 nM; in experiment [3] it was 0.7 nM; in experiment [4] it was 2.9 nM.
